Details in all cases: 125I-somatostatin-14 binding inhibition, CHO cell membrane fraction, 25°C for 60 minutes, Hill plots
Assay [1] addresses T1, human somatostatin receptor protein subtype 2 (SSTR2) (Homo sapiens, UniProt P30874).
T1 construct: expressed in transfected cells; host or cells: CHO (dhfr-) cells, strain SSTR2-HS5-9, plasmid pAC01 (pAKKO-111 vector); membrane fraction
Description: Measurement of the binding inhibition rate of 125I-Somatostatin (SSTR2). As for the experimental part: 1 x 10^6 CHO (dhfr^-) cells were cultured for 24 hours in HAM F12 medium containing 10% bovine fetal serum on a laboratory dish of 8 cm in diameter. To the cells was transfected 10 µg of the human SSTR2 cDNA expression plasmid, pA-C01, obtained under the above (5) by the calcium phosphate method (Cell Phect Transfection Kit: Pharmacia). The medium was switched to DMEM medium containing 10% dialyzed bovine fetal serum 24 hours after the transfection to select the colony-forming cells (i.e. DHFR^+ cells) in this medium. Further, the selected cells were cloned from a single cell by the limiting dilution method and a cell strain which highly expresses human SSTR2, SSTR2-HS5-9, was selected.
(§1) Measurement of the binding inhibition rate of ^125I-Somatostatin
(§2) The receptor binding inhibition rate (%) of the subject compound was calculated using each of the membrane fractions prepared in Experimental Examples 1 and 2.
(§3) The membrane fraction was diluted with a buffer solution for assay to adjust the concentration to 3 µg/ml. The diluate was placed in tubes each in quantity of 173 µl. To this were simultaneously added 2 µl of a solution of a subject compound in DMSO and 25 µl of a 200 pM radioisotope-labeled somatostatin-14 (^125I-somatostatin-14: Amersham). For measurement of the maximum binding, a reaction mixture added with 2 µl of DMSO and 25 µl of a 200 pM ^125I-somatostatin was prepared. For measurement of non-specific binding, a reaction mixture added with 2 µl of a 100 µM somatostatin solution in DMSO and 25 µl of a 200 pM ^125I-somatostatin solution was prepared at the same time. The mixtures were allowed to react at 25°C for 60 minutes. Then, the reaction mixture was filtered by aspiration using a Whatman glass filter (GF-B) treated with polyethylenimine. After filtration, the radioactivity of ^125I-somatostatin-14 remaining on the filter paper was measured by a γ-counter. The binding inhibition rate (%) of each subject compound was calculated by the following formula: (TB-SB)/(TB-NSB) x 100 [formula] SB: radioactivity when a compound was added TB: maximum binding radioactivity NSB: non-specific binding radioactivity
(§4) The binding inhibition rates were measured by changing the concentrations of the subject compound, and the 50% inhibiting concentration of the subject compound (IC50 value) was calculated by the Hill plots.

Assay [2] deals with T2, human somatostatin receptor protein subtype 3 (SSTR3) (Homo sapiens, UniProt P32745).
T2 construct: expressed in transfected cells; host or cells: CHO (dhfr-) cells, strain SSTR3-15-19, plasmid pA1-11-SSTR3 (pAKKO-111 vector); membrane fraction
As to the kind of experiment: Measurement of the binding inhibition rate of 125I-Somatostatin (SSTR3). As for the experimental part: 1 x 10^6 CHO (dhfr^-) cells were cultured for 24 hours in HAM F12 medium containing 10% bovine fetal serum on a laboratory dish of 8 cm in diameter. The cells were transfected by 10 µg of the human SSTR3 DNA expression plasmid, pA-1-11-SSTR3, obtained under the above (5) using the calcium phosphate method. The medium was switched to DMEM medium containing 10% dialyzed bovine fetal serum 24 hours after the transfection to select the colony-forming cells (i.e. DHFR^+ cells) in this medium. Further, the selected cells were cloned from a single cell by the limiting dilution method and the somatostatin receptor protein expression activity of these cells was measured by the binding assay mentioned under the above (3). Thus, a highly somatostatin-binding cell strain, SSTR3-15-19, was selected.
as §1, §2, §3, §4

Assay [3] concerns the target T3, human somatostatin receptor protein subtype 5 (SSTR5) (Homo sapiens, UniProt P35346).
T3 construct: expressed in transfected cells; host or cells: CHO (dhfr-) cells, strain SSTR5-32-4, plasmid pA1-11-SSTR5 (pAKKO-111 vector); membrane fraction
Description: Measurement of the binding inhibition rate of 125I-Somatostatin (SSTR5). Here is the method:
1 x 10^6 CHO (dhfr^-) cells were cultured for 24 hours in HAM F12 medium containing 10% bovine fetal serum on a laboratory dish of 8 cm in diameter. To the cells was transfected 10 µg of the human SSTR5 cDNA expression plasmid, pA-1-11-SSTR5, obtained under the above (11) by the calcium phosphate method. The medium was switched to DMEM medium containing 10% dialyzed bovine fetal serum 24 hours after the transfection to select the colony-forming cells (i.e. DHFR^+ cells) in this medium. Further, the selected cells were cloned from a single cell by the limiting dilution method and the somatostatin receptor protein expression activity of these cells was measured by binding assay mentioned under the above (3). Thus, a highly somatostatin-biding cell strain, SSTR5-32-4, was selected.
as §1, §2, §3, §4

By IC50 is commonly meant the midpoint of a concentration-inhibition curve. High values mean lower potency, low ones higher potency.

T2 sequence (P32745 whole entry): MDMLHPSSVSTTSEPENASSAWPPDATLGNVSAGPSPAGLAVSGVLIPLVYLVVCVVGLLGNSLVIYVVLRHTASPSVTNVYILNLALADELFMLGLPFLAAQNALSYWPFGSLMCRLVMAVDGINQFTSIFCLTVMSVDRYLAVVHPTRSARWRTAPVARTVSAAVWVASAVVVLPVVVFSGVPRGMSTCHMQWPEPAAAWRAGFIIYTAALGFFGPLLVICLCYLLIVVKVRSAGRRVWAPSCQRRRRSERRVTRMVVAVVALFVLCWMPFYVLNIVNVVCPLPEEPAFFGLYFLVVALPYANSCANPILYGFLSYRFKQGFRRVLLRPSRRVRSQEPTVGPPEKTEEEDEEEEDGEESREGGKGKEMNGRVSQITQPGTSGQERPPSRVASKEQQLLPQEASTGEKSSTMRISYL
T3 sequence (P35346 whole entry): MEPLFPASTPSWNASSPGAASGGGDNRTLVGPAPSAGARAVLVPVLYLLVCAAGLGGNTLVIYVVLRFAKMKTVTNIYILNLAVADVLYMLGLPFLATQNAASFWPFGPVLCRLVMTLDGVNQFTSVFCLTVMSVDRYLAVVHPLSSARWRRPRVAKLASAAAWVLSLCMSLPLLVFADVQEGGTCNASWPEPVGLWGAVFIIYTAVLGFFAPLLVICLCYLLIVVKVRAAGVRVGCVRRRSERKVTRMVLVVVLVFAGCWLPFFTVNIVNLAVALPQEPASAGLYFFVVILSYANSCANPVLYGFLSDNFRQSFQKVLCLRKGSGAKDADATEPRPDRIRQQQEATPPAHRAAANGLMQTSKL
T1 sequence (P30874 whole entry): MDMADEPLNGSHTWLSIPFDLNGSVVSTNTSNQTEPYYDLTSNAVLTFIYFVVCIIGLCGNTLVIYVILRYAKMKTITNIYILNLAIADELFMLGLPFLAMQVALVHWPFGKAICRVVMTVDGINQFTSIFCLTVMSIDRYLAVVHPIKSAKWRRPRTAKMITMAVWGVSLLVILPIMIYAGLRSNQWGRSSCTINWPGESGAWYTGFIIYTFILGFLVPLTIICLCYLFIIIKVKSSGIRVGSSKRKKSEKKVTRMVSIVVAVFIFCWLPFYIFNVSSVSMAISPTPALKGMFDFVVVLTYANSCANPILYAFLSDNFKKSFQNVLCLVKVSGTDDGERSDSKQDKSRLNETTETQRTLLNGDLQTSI

Regarding `CN(C)CC1Cc2cc(Cl)ccc2N(C(=O)[C@@H](Cc2c[nH]c3ccccc23)NC(=O)C2CCN(C(=O)c3cc4ccccc4[nH]3)CC2)C1` (stereo partly drawn) [Example 14, N-[(1R)-2-[6-chloro-3-(R,S)-[(dimethylamino)methyl]-1,2,3,4-tetrahydro-1-quinolinyl]-1-(1-indol-3-ylmethyl)-2-oxoethyl]-1-(1-indol-2-ylcarbonyl)-4-piperidinecarboxamide], the IC50 is 0.6 nM in assay [1], 70 nM in assay [2] and 300 nM in assay [3].
For the molecule `CN(C)C[C@H]1Cc2cc(Cl)ccc2N(C(=O)[C@@H](Cc2c[nH]c3ccccc23)NC(=O)CCC2CCN(C(=O)c3ccccc3)CC2)C1` [Example 31, 3-(1-benzoyl-4-piperidinyl)-N-[(1R)-2-[(3R)-6-chloro-3-[(dimethylamino)methyl]-1,2,3,4-tetrahydro-1-quinolinyl]-1-(1-indol-3-ylmethyl)-2-oxoethyl]propanamide], the IC50 in assay [1] worked out at 2 nM; in assay [2], 60 nM; in assay [3], 300 nM.
With `CN(C)C[C@H]1Cc2cc(Cl)ccc2N(C(=O)[C@@H](Cc2c[nH]c3ccccc23)NC(=O)C2CCN(C(=O)c3cc4ccccc4n3C)CC2)C1` [Example 51, N-[(1R)-2-[(3R)-6-chloro-3-[(dimethylamino)-methyl]-1,2,3,4-tetrahydro-1-quinolinyl]-1-(1-indol-3-ylmethyl)-2-oxoethyl]-1-(1-methylindol-2-ylcarbonyl)-4-piperidinecarboxamide], the values for the IC50 in assay [1], in assay [2] and in assay [3] were 0.3 nM, 80 nM and 400 nM, respectively.
The matching figures for `CN(C)C[C@H]1Cc2cc(Cl)ccc2N(C(=O)[C@@H](Cc2c[nH]c3ccccc23)NC(=O)N2CCC(C(=O)c3ccc(Cl)cc3)CC2)C1` [Example 130, 4-(4-chlorobenzoyl)-N-[(1R)-2-[(3R)-6-chloro-3-[(dimethylamino)methyl]-1,2,3,4-tetrahydro-1-quinolinyl]-1-(1-indol-3-ylmethyl)-2-oxoethyl]-1-piperidinecarboxamide]: 2 nM, 40 nM and 400 nM.
Consider `CN(C)C[C@H]1Cc2cc(Cl)ccc2N(C(=O)[C@@H](Cc2c[nH]c3ccccc23)NC(=O)N2CCC(Oc3ccccc3)CC2)C1` [Example 145-2, N-[(1R)-2-[(3R)-6-chloro-3-[(dimethylamino)methyl]-1,2,3,4-tetrahydro-1-quinolinyl]-1-(1H-indol-3-ylmethyl)-2-oxoethyl]-4-phenoxyl-1-piperidinecarboxamide], for which the IC50 in assay [1] turned out to be 1 nM; in assay [2], 10 nM; in assay [3] it was 200 nM.

Values taken from patent EP1227090A1, “AMINE DERIVATIVES” (Tadeka Chemical Industries, Ltd., priority 1999, dated 2001).
